Values of other authors as cited in US20020144302A1 (priority 1996, published 2002).

Details: man; daily dose around 200 mg (Vidal, 1996)

CC(C)OC(=O)C(C)(C)Oc1ccc(C(=O)c2ccc(Cl)cc2)cc1 [fenofibrate]
plasma concentration: about 15 μg/ml
